Where a name gives a salt, the structure may show the parent alone.
Experiments:
Type in all cases: in vivo, persons (trained panelists)
[1] = Sensory panel testing of bitterness reduction of 500 ppm caffeine solutions; conditions: for Panel Score (0-15), bitterness: 0: no bitterness, 15: very bitter
Source text: (§1) Sensory testing was used to identify extracts that provide bitterness reduction and to evaluate the degree of bitterness reduction provided by specific compounds. In general, bitterness sensory testing involved providing test solutions to trained panelists who rated the perceived bitterness of test solutions. Panels consisted of three persons who can taste phenylthiocarbamide (PTC) test paper, and panelists were selected based on their ability to discriminate differences in the concentrations of bitterness. Panelists swirled an aliquot of a solution in the mouth for 15 seconds, spit out the test solution, and rated the perceived bitterness intensity of the solution on a scale of 0 to 15 (0: no bitterness, 15: very bitter). Panelists drank water after each test solution evaluation to remove the bitterness before evaluating the next solution.
(§2) Panel testing results can be used to quantify perceived changes in bitterness. The change in perceived bitterness of an ingestible composition following addition of a bitter-masking agent is defined herein as the percent change in the bitterness panel test rating of a composition to which a bitter-masking agent has been added compared to the bitterness panel test rating of the otherwise identical composition without the bitter-masking agent. For instance, if a composition is given a bitterness intensity rating of 8, and the same composition with addition of an amount of bitter-masking agent is given a bitterness intensity rating of 6, then the bitter-masking agent has provided a perceived change in bitterness of 25%.
Compound 1 was evaluated by sensory panel testing for bitterness reduction of caffeine solutions. A solution of 500 ppm caffeine in distilled water was used as a control solution having high bitterness, and Compound 1 was added to aliquots of the control solution to provide test solutions containing 500 ppm caffeine and 25, 50, or 100 ppm of Compound 1.

[2] = Sensory panel testing of perceived sweetness of 6 ppm sucrose solutions; conditions: for Panel Score (0-15), sweetness: 0: no sweetness, 15: very sweet
Source text: Similar panel testing was done to evaluate perceived sweetness of test solutions. Panelists swirled an aliquot of test solution in the mouth for 15 seconds, spit out the test solution, and rated the perceived sweetness intensity of the test solution on a scale of 0 to 15 (0: no sweetness, 15: very sweet). Panelists drank water after each test solution evaluation before evaluating the next test solution.
Panel testing results can be used to quantify perceived changes in sweetness in an analogous manner. The change in perceived sweetness of an ingestible composition following addition of a bitter-masking agent or other agent is defined herein as the percent change in the sweetness panel test rating of a composition to which a bitter-masking agent or other agent has been added compared to the sweetness panel test rating of the otherwise identical composition without the bitter-masking agent or other agent. For instance, if a composition is given a sweetness intensity rating of 8, and the same composition with addition of an amount of bitter-masking agent or other agent is given a sweetness intensity rating of 6, then the bitter-masking agent or other agent has provided a perceived change in sweetness of 25%.
A similar panel test was performed to assess whether the efficacy of Compound 1 at masking bitterness is derived from imparting sweetness. A solution of 6 ppm sucrose in distilled water was used as a sweetness control solution, and Compound 1 was added to three aliquots of the sweetness control solution to provide test solutions containing 6 ppm sucrose and 25, 50, or 100 ppm of Compound 1. Panelists then evaluated the sweetness intensity of each test solution.

[3] = Sensory panel testing of bitterness reduction of 6 ppm quinine solutions; conditions: for Panel Score (0-15), bitterness: 0: no bitterness, 15: very bitter
Source text: as §1, §2
Compound 1 was evaluated by sensory panel testing. A solution of 6 ppm quinine monohydrochloride dihydrate in distilled water was used as a control solution having high bitterness, and Compound 1 was added to aliquots of the control solution to provide test solutions containing 6 ppm quinine and 25, 50, or 100 ppm of Compound 1.
Compounds 2-5 were also evaluated by sensory panel testing in the same manner as Compound 1.
Sensory panel tests were also performed to evaluate whether crude extracts from allspice would be effective at reducing bitterness. Allspice was mixed with boiling water to obtain a crude aqueous mixture, and solvent was removed from the crude aqueous mixture using rotary evaporation to obtain a crude extract. The crude extract was used without further purification. An aqueous solution containing 6 ppm quinine was used as a bitterness control solution, and the crude extract was added to aliquots of the control solution to provide test solutions containing 6 ppm quinine and 100 ppm or 1000 ppm of the crude extract. The three solutions were evaluated by a sensory panel as described above.

For `COc1cc(C[C@@H](O)CO)ccc1O` [Compound 1, (2R)-3-(4-hydroxy-3-methoxyphenyl) propane-1,2-diol], the “Panel Score (0-15), bitterness” value ([1]; 25 ppm Compound 1 added to 500 ppm caffeine) was 3.5, the “Panel Score (0-15), bitterness” value ([1]; 50 ppm Compound 1 added to 500 ppm caffeine) was 4.0 and the “Panel Score (0-15), bitterness” value ([1]; 100 ppm Compound 1 added to 500 ppm caffeine) was 3.8. For the same compound, the “masking of the bitterness of caffeine solutions” value ([1]; 500 ppm caffeine, 25, 50, or 100 ppm Compound 1) was “did not significantly mask the bitterness of caffeine solutions”, the “contribution to perceived sweetness of the test solutions” value ([2]; 6 ppm sucrose, 25, 50, or 100 ppm Compound 1) was “did not contribute to perceived sweetness of the test solutions” and the “Panel Score (0-15), sweetness” value ([2]; 25 ppm Compound 1 added to 6 ppm sucrose) was 7.2. The “Panel Score (0-15), sweetness” value ([2]; 50 ppm Compound 1 added to 6 ppm sucrose) was 6.8, the “Panel Score (0-15), sweetness” value ([2]; 100 ppm Compound 1 added to 6 ppm sucrose) was 7.2 and the “perceived bitterness of quinine solutions” value ([3]; 6 ppm quinine, 25, 50, or 100 ppm Compound 1) was “markedly reduced the perceived bitterness of quinine solutions”. The “Panel Score (0-15), bitterness” value ([3]; 25 ppm Compound 1 added to 6 ppm quinine) was 5.0, the “Panel Score (0-15), bitterness” value ([3]; 50 ppm Compound 1 added to 6 ppm quinine) was 3.0 and the “Panel Score (0-15), bitterness” value ([3]; 100 ppm Compound 1 added to 6 ppm quinine) was 0.8.
In the case of `Cn1c(=O)c2c(ncn2C)n(C)c1=O` [caffeine, reference compound], the “Panel Score (0-15), bitterness” value ([1]; 500 ppm caffeine alone (control)) is reported as 3.0.
In the case of `C=C[C@H]1C[N@@]2CC[C@H]1C[C@H]2[C@H](O)c1ccnc2ccc(OC)cc12` [quinine, quinine monohydrochloride dihydrate, reference compound], the “Panel Score (0-15), bitterness” value ([3]; 6 ppm quinine alone (control), Example 2) is reported as 6.0 and the “Panel Score (0-15), bitterness” value ([3]; 6 ppm quinine alone (control), Example 3) is reported as 6.0.
In the case of `OC[C@H]1O[C@@](CO)(O[C@H]2O[C@H](CO)[C@@H](O)[C@H](O)[C@H]2O)[C@@H](O)[C@@H]1O` [sucrose, reference compound], the “Panel Score (0-15), sweetness” value ([2]; 6 ppm sucrose alone (control)) is reported as 7.0.

Reference: patent publication US20260324697A1, “MATERIALS AND METHODS FOR MASKING BITTERNESS” (UNIVERSITY OF FLORIDA RESEARCH FOUNDATION, INCORPORATED, priority 2023, published 2026)
